In patent US20260167627A1, “NEW SOLID FORMS OF (3R)-N-[2-CYANO-4-FLUORO-3-(3-METHYL-4-OXO-QUINAZOLIN-6-YL)OXY-PHENYL]-3-FLUORO-PYRROLIDINE-1-SULFONAMIDE” (Hoffmann-La Roche Inc., priority 2023, published 2026):

What was measured:
[1] = Thermogravimetric analysis (TGA); type: physicochemical; settings: heating rate 5 K/min under nitrogen, FIG. 3
Method: Thermogravimetric analyses (TGA) were performed on a Mettler-Toledo™ thermogravimetric analyzer (TGA/DSC1 or TGA/DSC3+). System suitability tests were performed with Hydranal as reference substance and calibrations using Aluminum and Indium as reference substances. For the thermogravimetric analyses, approx. 5 to 15 mg (about 7.197 mg of Form B) of sample were placed in aluminum pans, accurately weighed and hermetically closed with perforation lids. Prior to measurement, the lids were automatically pierced resulting in approx. 0.5 mm pin holes. The samples were then heated under a flow of nitrogen of about 50 mL/min using a heating rate of 5 K/min to a maximum temperature of typically 350° C.

[2] = Thermodynamic stability of the solid form; type: physicochemical
[3] = Moisture sorption/desorption (DVS), hygroscopicity; type: physicochemical
Method: Moisture sorption/desorption data was collected on a DVS Advantage, a DVS Adventure, or a DVS Intrinsic (SMS Surface Measurements Systems) moisture balance system. The sorption/desorption isotherms were measured stepwise in a range from 0%-RH to 90%-RH at typically 25° C. A weight change of typically <0.001%/min was chosen as criterion to switch to the next level of relative humidity (with a maximum equilibration time of typically 24 hours, if the weight change criterion was not met). The data were corrected for the initial moisture content of the samples by taking the weight after drying of the samples at 0%-RH as zero point.
The hygroscopicity of a given substance was characterized (by close analogy with the European Pharmacopoeia) by the increase in mass when the relative humidity was raised from 0%-RH to 90%-RH:
European Pharmacopoeia-8″ Edition (2014), Chapter 5.11.

[4] = cited from earlier work

SMILES | mass loss (TGA) [1] [%] | thermodynamic stability of solid form [2] | water uptake according to European Pharmacopeia ([3]; 0%-RH to 90%-RH) [%] | hygroscopicity class ([3]; relative humidity raised from 0%-RH to 90%-RH, typically 25° C.) | brain permeability [4]
Cn1cnc2ccc(Oc3c(F)ccc(NS(=O)(=O)N4CC[C@@H](F)C4)c3C#N)cc2c1=O [Form B, (3R)—N-[2-cyano-4-fluoro-3-(3-methyl-4-oxo-quinazolin-6-yl)oxy-phenyl]-3-fluoro-pyrrolidine-1-sulfonamide] | 0.087 | thermodynamically stable form | < 0.2 | non-hygroscopic (weight increase Dm < 0.2%) | 
CC(C)(C)c1nc(-c2cccc(NS(=O)(=O)c3c(F)cccc3F)c2F)c(-c2ccnc(N)n2)s1 [Dabrafenib] |  |  |  |  | very poor
COC(=O)N[C@@H](C)CNc1nccc(-c2cn(C(C)C)nc2-c2cc(Cl)cc(NS(C)(=O)=O)c2F)n1 [Encorafenib] |  |  |  |  | very poor
CCCS(=O)(=O)Nc1ccc(F)c(C(=O)c2c[nH]c3ncc(-c4ccc(Cl)cc4)cc23)c1F [Vemurafenib] |  |  |  |  | very poor
